Measurements published in the RepoRT retention time repository (doi:10.1021/es4044374).

Test: RP, Waters XBridge C18, 50 × 2.1 mm, 3.5 µm, 30 °C, 0.2 mL/min, estimated dead time 0.55 min; A: water + 0.1% formic acid, pH 3; B: methanol + 0.1% formic acid, pH 3; gradient (min/%B) 0/10 4/50 17/95 25/95 25.1/10 30/10
Conditions: stereoisomer not certain

LC retention time | SMILES
16.9 min | CCN(CC(=O)O)S(=O)(=O)C(F)(F)C(F)(F)C(F)(F)C(F)(F)C(F)(F)C(F)(F)C(F)(F)C(F)(F)F [N-Ethylperfluorooctane sulfonamidoacetic acid]
16.5 min | CN(CC(=O)O)S(=O)(=O)C(F)(F)C(F)(F)C(F)(F)C(F)(F)C(F)(F)C(F)(F)C(F)(F)C(F)(F)F [N-methylperfluorooctane sulfonamidoacetic acid]
10.2 min | COc1ccc2cc(C(C)C(=O)O)ccc2c1 (stereo unspecified) [Naproxen]
7.2 min | COc1ccc(CCC(=O)c2c(O)cc(OC3OC(CO)C(O)C(O)C3OC3OC(C)C(O)C(O)C3O)cc2O)cc1O (stereo unspecified) [Neohesperidin dihydrochalcone]
9 min | COC(=O)C(Cc1ccccc1)NC(=O)C(CC(=O)O)NCCC(C)(C)C (stereo unspecified) [Neotame]
4.4 min | CCn1cc(C(=O)O)c(=O)c2cc(F)c(N3CCNCC3)cc21 [Norfloxacin]
4.8 min | CN(C)CC(c1ccc(O)cc1)C1(O)CCCCC1 (stereo unspecified) [O-desmethylvenlafaxine]
13.3 min | CCN(CC)C(=O)SCc1ccccc1Cl [Orbencarb]
5.1 min | CCC(CC)OC1C=C(C(=O)O)CC(N)C1NC(C)=O (stereo unspecified) [Oseltamivir carboxylate]
7 min | CCOC(=O)C1=CC(OC(CC)CC)C(NC(C)=O)C(N)C1 (stereo unspecified) [Oseltamivir]
6.6 min | COc1ccnc(CS(=O)c2nc3ccc(OC(F)F)cc3[nH]2)c1OC (stereo unspecified) [Pantoprazole]
2.2 min | CC(=O)Nc1ccc(O)cc1 [Paracetamol]
5.1 min | O=C(O)C(F)(F)C(F)(F)C(F)(F)F [Perfluorobutyric acid]
14.7 min | O=P(O)(O)OCCC(F)(F)C(F)(F)C(F)(F)C(F)(F)C(F)(F)C(F)(F)C(F)(F)C(F)(F)F [Perfluorodecyl phosphate]
12.1 min | O=P(O)(O)OCCC(F)(F)C(F)(F)C(F)(F)C(F)(F)C(F)(F)C(F)(F)F [Perfluorooctyl phosphate]
9.2 min | CCC(C)C(=O)OC1CC(O)C=C2C=CC(C)C(CCC(O)CC(O)CC(=O)O)C21 (stereo unspecified) [Pravastatin]
8 min | CC12C=CC(=O)C=C1CCC1C2C(O)CC2(C)C1CCC2(O)C(=O)CO (stereo unspecified) [Prednisolone]
5.4 min | CCC1(c2ccccc2)C(=O)NCNC1=O [Primidone]
5.9 min | CC(C)N(C(=O)CS(=O)(=O)O)c1ccccc1 [Propachlor ESA]
5.6 min | CC(C)N(C(=O)C(=O)O)c1ccccc1 [Propachlor OXA]
2.4 min | CCCOC(=O)NCCCN(C)C [Propamocarb]
6.6 min | CC(C)NCC(O)COc1cccc2ccccc12 (stereo unspecified) [Propranolol]

LC retention time | SMILES
3.4 min | Cc1cc(=O)[nH]c(C(C)C)n1 [Pyrimidinol]
2.4 min | CNC(=C[N+](=O)[O-])NCCSCc1ccc(C[N+](C)(C)[O-])o1 [Ranitidine N-oxide]
0.8 min | CNC(=C[N+](=O)[O-])NCCS(=O)Cc1ccc(CN(C)C)o1 (stereo unspecified) [Ranitidine-S-oxide]
1.9 min | CNC(=C[N+](=O)[O-])NCCSCc1ccc(CN(C)C)o1 [Ranitidine]
8.3 min | COC(=O)C1C2CC3c4[nH]c5cc(OC)ccc5c4CCN3CC2CC(OC(=O)c2cc(OC)c(OC)c(OC)c2)C1OC (stereo unspecified) [Reserpine]
13.6 min | CC(C)c1nc(CN(C)C(=O)NC(C(=O)NC(Cc2ccccc2)CC(O)C(Cc2ccccc2)NC(=O)OCc2cncs2)C(C)C)cs1 (stereo unspecified) [Ritonavir]
9.2 min | CC(C)c1nc(N(C)S(C)(=O)=O)nc(-c2ccc(F)cc2)c1C=CC(O)CC(O)CC(=O)O (stereo unspecified) [Rosuvastatin]
10.1 min | CCC1OC(=O)C(C)C(OC2CC(C)(OC)C(O)C(C)O2)C(C)C(OC2OC(C)CC(N(C)C)C2O)C(C)(O)CC(C)C(=NOCOCCOC)C(C)C(O)C1(C)O (stereo unspecified) [Roxithromycin]
9.8 min | CCNc1nc(Cl)nc(NC(C)CC)n1 (stereo unspecified) [Sebuthylazine]
6.7 min | CCNc1nc(NC(C)CC)nc(OC)n1 (stereo unspecified) [Secbumeton]
3.5 min | CCNc1nc(NCC)[nH]c(=O)n1 [Simazine-2-hydroxy]
4.9 min | CCNc1nc(NCC)nc(OC)n1 [Simeton]
16 min | CCC(C)(C)C(=O)OC1CC(C)C=C2C=CC(C)C(CCC3CC(O)CC(=O)O3)C21 (stereo unspecified) [Simvastatin]
5.2 min | NC(CC(=O)N1CCn2c(nnc2C(F)(F)F)C1)Cc1cc(F)c(F)cc1F (stereo unspecified) [Sitagliptin]
1.6 min | CC(C)NCC(O)c1ccc(NS(C)(=O)=O)cc1 (stereo unspecified) [Sotalol]
10.2 min | CC(=O)SC1CC2=CC(=O)CCC2(C)C2CCC3(C)C(CCC34CCC(=O)O4)C12 (stereo unspecified) [Spironolactone]
4.4 min | OCC1OC(OC2(CCl)OC(CCl)C(O)C2O)C(O)C(O)C1Cl (stereo unspecified) [Sucralose]
2.2 min | Nc1ccc(S(=O)(=O)Nc2ncccn2)cc1 [Sulfadiazine]
5.7 min | COc1cc(NS(=O)(=O)c2ccc(N)cc2)nc(OC)n1 [Sulfadimethoxine]
3.9 min | Cc1cc(C)nc(NS(=O)(=O)c2ccc(N)cc2)n1 [Sulfamethazine]
4.6 min | Cc1cc(NS(=O)(=O)c2ccc(N)cc2)no1 [Sulfamethoxazole]
0.9 min | Nc1ccc(S(=O)(=O)O)cc1 [Sulfanilic acid]

More lines, now with the values behind:

SMILES | LC retention time
CCNS(=O)(=O)C(F)(F)C(F)(F)C(F)(F)C(F)(F)C(F)(F)C(F)(F)C(F)(F)C(F)(F)F [N-Ethylperfluoroctansulfonamid (N-EtFOSA)] | 17.1 min
O=C1CCC2(O)C3Cc4ccc(O)c5c4C2(CCN3CC2CC2)C1O5 (stereo unspecified) [Naltrexone] | 3.1 min
CCN(CC)C(=O)C(C)Oc1cccc2ccccc12 (stereo unspecified) [Napropamid] | 11.7 min
COc1cc(OC)nc(NC(=O)NS(=O)(=O)c2ncccc2C(=O)N(C)C)n1 [Nicosulfuron] | 7.1 min
O=C1Nc2ccc(Cl)cc2C(c2ccccc2)=NC1O (stereo unspecified) [Oxazepam] | 9 min
O=C(O)C(F)(F)C(F)(F)C(F)(F)C(F)(F)C(F)(F)C(F)(F)C(F)(F)C(F)(F)C(F)(F)F [Perfluorodecanoic acid] | 15.2 min
O=C(O)C(F)(F)C(F)(F)C(F)(F)C(F)(F)C(F)(F)C(F)(F)F [Perfluoroheptanoic acid] | 11.1 min
O=C(O)C(F)(F)C(F)(F)C(F)(F)C(F)(F)C(F)(F)F [Perfluorohexanoic acid] | 9.3 min
O=C(O)C(F)(F)C(F)(F)C(F)(F)C(F)(F)C(F)(F)C(F)(F)C(F)(F)C(F)(F)F [Perfluorononanoic acid] | 13.9 min
O=C(O)CNS(=O)(=O)C(F)(F)C(F)(F)C(F)(F)C(F)(F)C(F)(F)C(F)(F)C(F)(F)C(F)(F)F [Perfluorooctane sulfonamidoacetic acid] | 15.9 min
O=C(O)C(F)(F)C(F)(F)C(F)(F)C(F)(F)C(F)(F)C(F)(F)C(F)(F)F [Perfluorooctanoic acid] | 12.6 min
O=C(O)C(F)(F)C(F)(F)C(F)(F)C(F)(F)F [Perfluoropentanoic acid] | 7.3 min
O=C(O)C(F)(F)C(F)(F)C(F)(F)C(F)(F)C(F)(F)C(F)(F)C(F)(F)C(F)(F)C(F)(F)C(F)(F)F [Perfluoroundecanoic acid] | 16.3 min
CCOCCN(C(=O)CCl)C(=C(C)C)c1ccccc1 [Pethoxamide] | 11.5 min
COC(=O)Nc1cccc(OC(=O)Nc2cccc(C)c2)c1 [Phenmedipham] | 9.5 min
CCc1cc(C)cc(CC)c1-c1c(OC(=O)C(C)(C)C)n2n(c1=O)CCOCC2 [Pinoxaden] | 13.7 min
Cc1nc(N(C)C)nc(OC(=O)N(C)C)c1C [Pirimicarb] | 5 min
CCCN(CCOc1c(Cl)cc(Cl)cc1Cl)C(=O)n1ccnc1 [Prochloraz] | 12.2 min
COc1nc(NC(C)C)nc(NC(C)C)n1 [Prometon] | 6.7 min

SMILES | LC retention time
CSc1nc(NC(C)C)nc(NC(C)C)n1 [Prometryn] | 8.5 min
CC(C)N(C(=O)CCl)c1ccccc1 [Propachlor] | 8.6 min
CC(C)=NOCCOC(=O)C(C)Oc1ccc(Oc2cnc3cc(Cl)ccc3n2)cc1 (stereo unspecified) [Propaquizafop] | 15 min
CC(C)Nc1nc(Cl)nc(NC(C)C)n1 [Propazine] | 9.9 min
CCCC1COC(Cn2cncn2)(c2ccc(Cl)cc2Cl)O1 (stereo unspecified) [Propiconazole] | 13.1 min
CCCN(CCC)C(=O)SCc1ccccc1 [Prosulfocarb] | 14.4 min
CC1=NNC(=O)N(N=Cc2cccnc2)C1 [Pymetrozine] | 1.5 min
COC(=O)N(OC)c1ccccc1COc1ccn(-c2ccc(Cl)cc2)n1 [Pyraclostrobin] | 13.4 min
Cc1cc(C)nc(Nc2ccccc2)n1 [Pyrimethanil] | 7.6 min
CCS(=O)(=O)c1cccnc1S(=O)(=O)NC(=O)Nc1nc(OC)cc(OC)n1 [Rimsulfuron] | 7.9 min
O=C(O)C(c1ccccc1)C1CCCCN1 (stereo unspecified) [Ritalinic acid] | 4.7 min
O=C1NS(=O)(=O)c2ccccc21 [Saccharin] | 2.5 min
CCNc1nc(Cl)nc(NCC)n1 [Simazine] | 6.9 min
CCCN(CC)CC1COC2(CCC(C(C)(C)C)CC2)O1 (stereo unspecified) [Spiroxamine] | 10.1 min
CS(=O)(=O)c1ccc(C(=O)C2C(=O)CCCC2=O)c(Cl)c1 [Sulcotrione] | 6.8 min
Nc1ccc(S(=O)(=O)Nc2ccccn2)cc1 [Sulfapyridine] | 2.9 min
Nc1ccc(S(=O)(=O)Nc2nccs2)cc1 [Sulfathiazole] | 2.8 min
CC(C)(C)C(O)(CCc1ccc(Cl)cc1)Cn1cncn1 (stereo unspecified) [Tebuconazole] | 12.8 min
